The values below come from US10821115B2, “Compounds that inhibit Mcl-1 protein” (priority 2017, dated 2020).

Assay [1] addresses recombinant human Mcl-1 (residues 171-327) / Bim interaction (Homo sapiens (Human), UniProt Q07820). Nature of the assay: biochemical. In kind it is binding. The following applies: read-out: Mcl-1 HTRF IC50.
Assay [2] relates to human multiple myeloma cell line, OPM-2. As to the kind of experiment: Cell viability assay (OPM-2 10 FBS), CellTiter-Glo. It counts as cell-based. The procedure, abridged: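 3000 cells/well, RPMI 1640 + 10% FBS; serial compound dilutions, 16 h, 37 °C/5% CO2.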
Where [3] appears, read: TR-FRET, Mcl-1(171-327) / biotin-Bim (51-76).
Where [4] appears, read: Homo sapiens, OPM-2, 16 h, read-out: OPM-2 10% FBS IC50 IP, OPM-2 cells, 10% FBS, 16 h, CellTiter-Glo.
The mark [5] stands for this setting: 0.1 nM Mcl-1(171-327), 0.05 nM biotin-Bim (51-76).
[6] abbreviates: Homo sapiens, OPM-2, 16 h, read-out: OPM-2 10% FBS IC50 IP, OPM-2 cells, 10% FBS, 16 h incubation.
Where [7] appears, read: read-out: OPM-2 10% FBS IC50 IP, OPM-2 cells, 10% FBS, 16 h, CellTiter-Glo.

Where two headings read alike, the source gives them in different places.

recombinant human Mcl-1 (residues 171-327) / Bim interaction, sequence (Q07820 171-327): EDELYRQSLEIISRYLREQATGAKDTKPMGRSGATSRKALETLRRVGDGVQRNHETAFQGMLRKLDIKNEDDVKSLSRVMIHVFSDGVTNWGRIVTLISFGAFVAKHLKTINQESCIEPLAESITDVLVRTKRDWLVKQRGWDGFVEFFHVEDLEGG

Consider `CO[C@@]1(C#CCCN2CCN(S(C)(=O)=O)CC2)/C=C/C[C@H](C)[C@@H](C)S(=O)(=O)NC(=O)c2ccc3c(c2)N(C[C@@H]2CC[C@H]21)C[C@@]1(CCCc2cc(Cl)ccc21)CO3` [Example 100488, (1S,3′R,6′R,7′S,8′E,11′S,12′R)-6-chloro-7′-methoxy-11′,12′-dimethyl-7′-(4-(4-(methylsulfonyl)-1-piperazinyl)-1-butyn-1-yl)-3,4-dihydro-2H,15′H-spiro[naphthalene-1,22′-[20]oxa[13]thia[1,14]diazatetracyclo [14.7.2.0~3,6~.0~19,24~]pentacosa[8,16,18,24]tetraen]-15′-one 13′,13′-dioxide], for which the IC50 is 0.389 nM in assay [1] (setting [3]) and 346 nM in assay [2] (setting [4]).
For `CCOCCN1CCN(C[C@]2(OC)/C=C/C[C@H](C)[C@@H](C)S(=O)(=O)NC(=O)c3ccc4c(c3)N(C[C@@H]3CC[C@H]32)C[C@@]2(CCCc3cc(Cl)ccc32)CO4)CC1` [Example 303, (1S,3′R,6′R,7′S,8′E,11′S,12′R)-6-chloro-7′-((4-(2-ethoxyethyl)-1-piperazinyl)methyl)-7′-methoxy-11′,12′-dimethyl-3,4-dihydro-2H,15′H-spiro[naphthalene-1,22′-[20]oxa[13]thia[1,14]diazatetracyclo [14.7.2.0~3,6~.0~19,24~]pentacosa[8,16,18,24]tetraen]-15′-one 13′,13′-dioxide], the figures for the IC50 in assay [1] (setting [5]) and in assay [2] (setting [6]) were 0.15 nM and 101 nM, respectively.
Consider `C=C(C)[C@@H](O)C[C@]1(OC)/C=C/C[C@H](C)[C@@H](C)S(=O)(=O)NC(=O)c2ccc3c(c2)N(C[C@@H]2CC[C@H]21)C[C@@]1(CCCc2cc(Cl)ccc21)CO3` [Example 100471, (1S,3′R,6′R,7′S,8′E,11′S,12′R)-6-chloro-7′-((2S)-2-hydroxy-3-methyl-3-buten-1-yl)-7′-methoxy-11′,12′-dimethyl-3,4-dihydro-2H,15′H-spiro[naphthalene-1,22′-[20]oxa[13]thia[1,14]diazatetracyclo [14.7.2.0~3,6~.0~19,24~]pentacosa[8,16,18,24]tetraen]-15′-one 13′,13′-dioxide], for which the half-inhibitory concentration (IC50) was 0.281 nM in assay [1] and 299 nM in assay [2] (setting [7]).
Regarding `CO[C@@]1(Cc2nccs2)/C=C/C[C@H](C)[C@@H](C)S(=O)(=O)NC(=O)c2ccc3c(c2)N(C[C@@H]2CC[C@H]21)C[C@@]1(CCCc2cc(Cl)ccc21)CO3` [Example 100525, (1S,3′R,6′R,7′S,8′E,11′S,12′R)-6-chloro-7′-methoxy-11′,12′-dimethyl-7′-(1,3-thiazol-2-ylmethyl)-3,4-dihydro-2H,15′H-spiro[naphthalene-1,22′-[20]oxa[13]thia[1,14]diazatetracyclo [14.7.2.0~3,6~.0~19,24~]pentacosa[8,16,18,24]tetraen]-15′-one 13′,13′-dioxide], the IC50 in assay [1] (setting [3]) came out at 3.31 nM; in assay [2] (setting [4]), 1430 nM.
On the same counts, the results for `C[C@@H]1[C@@H](C)C/C=C/[C@@](O)(COS(C)(=O)=O)[C@@H]2CC[C@H]2CN2C[C@@]3(CCCc4cc(Cl)ccc43)COc3ccc(cc32)C(=O)NS1(=O)=O` [Example 100335, ((1S,3′R,6′R,7′S,8′E,11′S,12′R)-6-chloro-7′-hydroxy-11′,12′-dimethyl-13′,13′-dioxido-15′-oxo-3,4-dihydro-2H-spiro[naphthalene-1,22′-[20]oxa[13]thia[1,14]diazatetracyclo [14.7.2.0~3,6~.0~19,24~]pentacosa[8,16,18,24]tetraen]-7′-yl)methyl methanesulfonate] are 0.319 nM and 165 nM.
In the case of `C[C@@H]1[C@@H](C)C/C=C/[C@@](O)(c2cncnc2)[C@@H]2CC[C@H]2CN2C[C@@]3(CCCc4cc(Cl)ccc43)COc3ccc(cc32)C(=O)NS1(=O)=O` (single isomer, unassigned) [Example 100434], the IC50 in assay [1] (setting [3]) is 0.162 nM; in assay [2] (setting [4]) it was 482 nM.
`CO[C@]1(CN(C)CCN2CCOCC2)/C=C/C[C@H](C)[C@@H](C)S(=O)(=O)NC(=O)c2ccc3c(c2)N(C[C@@H]2CC[C@H]21)C[C@@]1(CCCc2cc(Cl)ccc21)CO3` [Example 37, (1S,3′R,6′R,7′R,8′E,11′S,12′R)-6-chloro-7′-methoxy-11′,12′-dimethyl-7′-((methyl(2-(4-morpholinyl)ethyl)amino)methyl)-3,4-dihydro-2H,15′H-spiro[naphthalene-1,22′-[20]oxa[13]thia[1,14]diazatetracyclo [14.7.2.0~3,6~.0~19,24~]pentacosa[8,16,18,24]tetraen]-15′-one 13′,13′-dioxide]: the half-inhibitory concentration (IC50) in assay [1] (setting [5]) was found to be 0.615 nM; in assay [2] (setting [6]) it was 643 nM.
Turning to `C[C@@H]1[C@@H](C)C/C=C/[C@@](O)(CCCO)[C@@H]2CC[C@H]2CN2C[C@@]3(CCCc4cc(Cl)ccc43)COc3ccc(cc32)C(=O)NS1(=O)=O` [Example 100148, (1S,3′R,6′R,7′S,8′E,11′S,12′R)-6-chloro-7′-hydroxy-7′-(3-hydroxypropyl)-11′,12′-dimethyl-3,4-dihydro-2H,15′H-spiro[naphthalene-1,22′-[20]oxa[13]thia[1,14]diazatetracyclo [14.7.2.0~3,6~.0~19,24~]pentacosa[8,16,18,24]tetraen]-15′-one 13′,13′-dioxide], the results for the concentration for half-maximal inhibition (IC50) in assay [1] (setting [3]) and in assay [2] (setting [7]) were 0.113 nM and 239 nM, respectively.
For the molecule `C[C@@H]1[C@@H](C)C/C=C/[C@@]2(COCCO2)[C@@H]2CC[C@H]2CN2C[C@@]3(CCCc4cc(Cl)ccc43)COc3ccc(cc32)C(=O)NS1(=O)=O` [Example 100233, (2S,3′R,6′R,8′E,11′S,12′R,22′S)-6″-chloro-11′,12′-dimethyl-3″,4″-dihydro-2″H,15′H-dispiro[1,4-dioxane-2,7′-[20]oxa[13]thia[1,14]diazatetracyclo [14.7.2.0~3,6~.0~19,24~]pentacosa[8,16,18,24]tetraene-22′,1″-naphthalen]-15′-one 13′,13′-dioxide], the half-inhibitory concentration (IC50) in assay [1] (setting [3]) worked out at 1.04 nM; in assay [2] (setting [7]), 257 nM.
Turning to `C[C@@H]1[C@@H](C)CCC[C@@](O)(CS(=O)(=O)N(C)C)[C@@H]2CC[C@H]2CN2C[C@@]3(CCCc4cc(Cl)ccc43)COc3ccc(cc32)C(=O)NS1(=O)=O` [Example 100100, 1-((1S,3′R,6′R,7′S,11′S,12′R)-6-chloro-7′-hydroxy-11′,12′-dimethyl-13′,13′-dioxido-15′-oxo-3,4-dihydro-2H-spiro[naphthalene-1,22′-[20]oxa[13]thia[1,14]diazatetracyclo [14.7.2.0~3,6~.0~19,24~]pentacosa[16,18,24]trien]-7′-yl)-N,N-dimethylmethanesulfonamide], the IC50 in assay [1] came to 2.1 nM; in assay [2] (setting [7]) it was 1320 nM.
Consider `C[C@@H]1[C@@H](C)CCC[C@](O)(c2nccn2C)[C@@H]2CC[C@H]2CN2C[C@@]3(CCCc4cc(Cl)ccc43)COc3ccc(cc32)C(=O)NS1(=O)=O` [Example 100223, (1S,3′R,6′R,7′R,11′S,12′R)-6-chloro-7′-hydroxy-11′,12′-dimethyl-7′-(1-methyl-1H-imidazol-2-yl)-3,4-dihydro-2H,15′H-spiro[naphthalene-1,22′-[20]oxa[13]thia[1,14]diazatetracyclo [14.7.2.0~3,6~.0~19,24~]pentacosa[16,18,24]trien]-15′-one 13′,13′-dioxide], for which the concentration for half-maximal inhibition (IC50) was determined as 1.41 nM in assay [1] (setting [3]) and 2150 nM in assay [2] (setting [4]).
Turning to `C[C@@H]1[C@@H](C)CCC[C@@](O)(CC[S@@+](C)[O-])[C@@H]2CC[C@H]2CN2C[C@@]3(CCCc4cc(Cl)ccc43)COc3ccc(cc32)C(=O)NS1(=O)=O` [Example 100329, (1S,3′R,6′R,7′R,11′S,12′R)-6-chloro-7′-hydroxy-11′,12′-dimethyl-7′-(2-((R)-methylsulfinyl)ethyl)-3,4-dihydro-2H,15′H-spiro[naphthalene-1,22′-[20]oxa[13]thia[1,14]diazatetracyclo [14.7.2.0~3,6~.0~19,24~]pentacosa[16,18,24]trien]-15′-one 13′,13′-dioxide], the 50% inhibitory concentration (IC50) came to 5.02 nM in assay [1] (setting [3]) and 1560 nM in assay [2] (setting [4]).
`CN[C@@H]1C[C@H](C)[C@@H](C)S(=O)(=O)NC(=O)c2ccc3c(c2)N(C[C@@H]2CC[C@H]2[C@@](C)(O)C1)C[C@@]1(CCCc2cc(Cl)ccc21)CO3` [Example 100064, (1S,3′R,6′R,7′S,9′R,11′S,12′R)-6-chloro-7′-hydroxy-7′,11′,12′-trimethyl-9′-(methylamino)-3,4-dihydro-2H,15′H-spiro[naphthalene-1,22′-[20]oxa[13]thia[1,14]diazatetracyclo [14.7.2.0~3,6~.0~19,24~]pentacosa[16,18,24]trien]-15′-one 13′,13′-dioxide]: the IC50 came out at 2.54 nM in assay [1] (setting [3]) and 3730 nM in assay [2] (setting [4]).
With `CO[C@]1(CN2CCN3CCN(S(C)(=O)=O)C[C@@H]3C2)/C=C/C[C@H](C)[C@@H](C)S(=O)(=O)NC(=O)c2ccc3c(c2)N(C[C@@H]2CC[C@H]21)C[C@@]1(CCCc2cc(Cl)ccc21)CO3` (single isomer, unassigned) [Example 237], the IC50 in assay [1] (setting [5]) was found to be 0.13 nM; in assay [2] (read-out: OPM-2 10% FBS IC50 IP, OPM-2 cells, 10% FBS, 16 h incubation), 64 nM.
On to `CO[C@]1(CN2CCN(C(C)(C)C)CC2)/C=C/C[C@H](C)[C@@H](C)S(=O)(=O)NC(=O)c2ccc3c(c2)N(C[C@@H]2CC[C@H]21)C[C@@]1(CCCc2cc(Cl)ccc21)CO3` [Example 307, (1S,3′R,6′R,7′R,8′E,11′S,12′R)-7′-((4-tert-butyl-1-piperazinyl)methyl)-6-chloro-7′-methoxy-11′,12′-dimethyl-3,4-dihydro-2H,15′H-spiro[naphthalene-1,22′-[20]oxa[13]thia[1,14]diazatetracyclo [14.7.2.0~3,6~.0~19,24~]pentacosa[8,16,18,24]tetraen]-15′-one 13′,13′-dioxide], for which the half-maximal inhibitory concentration (IC50) stood at 0.087 nM in assay [1] (setting [5]) and 41 nM in assay [2] (setting [6]).

Usually IC50 stands for the midpoint of a concentration-inhibition curve.
